Series [1] has as its system E6/E7^LOW human hepatocytes. Nature of the series: Apoptotic index, DeadEnd fluorometric TUNEL System. The class given is cell-based. The following applies: 24 hours exposure.
The test system of a further series is HepG2/C3A organoids. Put plainly: Real-time oxygen uptake toxicity (TC50, time to onset, lowest exposure level) in differentiated HepG2/C3A organoids. It is filed as cell-based, human. Particulars: for TC50: oxygen uptake. Here is the method: A suspension of HepG2/C3A cells and CPOx-50-RuP beads (Colibri Photonics, Germany) were suspended in 2.5 mg/ml rat tail collagen type I (Corning, USA) at a cell density of 7×10^5 cells/μl. A volume of 1.1 μl of the gel-imbedded mixture was injected into each microwell and left to form spontaneously until their metabolic activity stabilized around day 4.
Fifty-micrometer-diameter polystyrene microbeads were loaded with ruthenium-phenanthroline-based phosphorescence dye (CPOx-50-RuP). […] Oxygen acts as a quencher, leading to a decrease in decay time and signal intensity with increasing concentration. The present inventors chose to measure decay time, rather than signal intensity, as it is not sensitive to changes in probe concentration or excitation intensity over the course of the experiment. The signal was measured using the OPAL system (Colibri Photonics, Germany) that comprises of a control module, 532 nm LED excitation source, and a photomultiplier (PMT) detector mounted on the ocular of an IX81 Olympus microscope (Olympus, Japan). A filter cube with 531/40 (Ex), 555, 607/70 (Em) was inserted in the optical light path during measurements. To accurately measure decay time, the present inventors chose phase modulation in which sinusoidal amplitude-modulated light is shifted in phase due to oxygen quenching. To overcome the superposition of in-phase background fluorescence that alters the phase of the detected signal, the present inventors used a novel 53.5 and 31.3 kHz two-frequency phase modulation that allowed to screen out the interference [Schmalzlin E., et al., 2005. Biophysical journal, 89: 1339-1345; Papkovsky, D. B. et al., 2004. Methods in enzymology, 381, 715-735; Ast, C., et al., 2012. Sensors (Basel), 12: 7015-7032; Engelhard, S., et al., 2006. Analytical and bioanalytical chemistry, 384: 1107-1112; Prill, D. et al., 2016, Archives of toxicology, 90: 1181-1191]. Measurements were carried out by averaging five consecutive 4-s exposures. Measurements were taken every 15 minutes. Under similar conditions, 28 days of measurement of organoids was done with no apparent phototoxicity, signal drift, or relevant loss of signal intensity (Schmalzlin E., et al., 2005. Biophysical journal, 89: 1339-1345). Assessment of Cellular Toxicity and Time to Onset
Organoids were exposed to different concentrations of compounds dissolved in culture medium. Cell viability was determined by oxygen uptake following 24 hours of exposure unless otherwise noted. TC50 concentrations were determined using MATLAB by sigmoidal curve fitting (Wenner, M. M. et al., 2011, J Appl Physiol (1985), 111: 1703-1709; Prentice, R. L. et al., 1976, Biometrics, 32: 761-768). Time to onset was analyzed by MATLAB based on LPF and trend assessment.
To find the asymptotic concentration for which damage occurs only at infinite exposure time, the present inventors used a previously developed model for accumulative drug exposure (El-Kareh et al., 2000. Neoplasia, 2: 325-338; Currie, G. M. 2018. J Nucl Med Technol, DOI: 10.2967/jnmt.117.199588). The model is based on the steady-state dynamics of flux accumulation, using a linear first-order approximation of the cell membrane. The flux behavior is described by
where J(C) is the concentration dependent flux, Jmin is the minimal flux that will cause an effect, t is time of exposure and |τ is a drug-cell specific constant accounting reaction dynamics (Gowrishankar et al., 2003. Proceedings of the National Academy of Sciences of the United States of America, 100: 3203-3208; Kotnik T. et al., 2000. IEEE Trans Biomed Eng, 47: 1074-1081). In the present case, t is the Time to Onset (TTO) of damage creating a bi-asymptotic behavior. This adapted model is used to describe lowest exposure level (LEL) under first order, steady state assumptions, as
Real-time oxygen measurements were performed optically using on-chip lifetime-based luminescence quenching (LBLQ). […]

“And” between values parts separate entries of the source, which are not always exact repeats. Equal entries are not always repeated.

Consider `Cc1cn([C@H]2C=C[C@@H](CO)O2)c(=O)[nH]c1=O` [Stavudine], for which the apoptosis entry in series [1] is given as “no evidence of apoptosis”. The TC50 was 4300 µM with HepG2/C3A organoids (at 24 hours); 1700 µM and 1700 ± 400 µM with HepG2/C3A organoids (at 42 hours). Also, the “Time to onset (TTO) of response” value in the series on HepG2/C3A organoids (dose-dependent range over concentrations tested) is 10 to 29 h. Moreover, in the series on HepG2/C3A organoids (horizontal asymptote, onset of damage at infinite time, ± standard error of curve fit), the “lowest exposure level (LEL)” value came to 4 ± 1 µM.

(Values after patent publication US12631620B2, “Methods of generating organoids for high throughput screening of drugs” (Yissum Research Development Company of the Hebrew …, priority 2019, dated 2026).)
